Measurements from US10314823B2, “Substituted 1,2-dihydro-3H-pyrrolo[1,2-c]imidazol-3-one antibacterial compounds” (IDORSIA PHARMACEUTICALS LTD, priority 2015, dated 2019).
In brackets after ≈: the same amount, converted by molar mass.

How the values were obtained:
Assay in all cases: Bacterial growth minimal inhibitory concentration (CLSI broth microdilution)
Format in all cases: cell-based
E. coli ATCC25922 = conditions: quinolone-sensitive strain, cation-adjusted Mueller-Hinton Broth; for MIC: Escherichia coli, ATCC25922
Method: (§1) Minimal Inhibitory Concentrations (MICs; mg/L) were determined in cation-adjusted Mueller-Hinton Broth by a microdilution method following the description given in “Methods for Dilution Antimicrobial Susceptibility Tests for Bacteria that Grow Aerobically”, Approved standard, 7th ed., Clinical and Laboratory Standards Institute (CLSI) Document M7-A7, Wayne, Pa., USA (2006).
(§2) All Reference Example compounds were tested against several Gram-negative bacteria. K. pneumoniae A-651 is a multiply resistant strain (in particular quinolone-resistant), while E. coli ATCC25922 and P. aeruginosa ATCC27853 are quinolone-sensitive strains. The corresponding antibacterial test results are given in Table 1 hereafter (MICs in mg/L).

K. pneumoniae A-651 = conditions: multiply resistant strain (in particular quinolone-resistant), cation-adjusted Mueller-Hinton Broth; for MIC: Klebsiella pneumoniae, A651
Method: as §1, §2

P. aeruginosa ATCC27853 = conditions: quinolone-sensitive strain, cation-adjusted Mueller-Hinton Broth; for MIC: Pseudomonas aeruginosa, ATCC27853
Method: as §1, §2

Row | MIC (E. coli ATCC25922) [µg/mL] | MIC (K. pneumoniae A-651) [µg/mL] | MIC (P. aeruginosa ATCC27853) [µg/mL] | SMILES | MIC for E. coli ATCC25922 (E. coli ATCC25922) [µg/mL] | MIC for K. Pneumoniae A-651 (K. pneumoniae A-651) [µg/mL] | MIC for P. aeruginosa ATCC27853 (P. aeruginosa ATCC27853) [µg/mL]
1 | 2 (≈ 3.59 µM) | 4 (≈ 7.17 µM) | 8 (≈ 14.3 µM) | CN1CC(OC(=O)NCc2ccc(C#Cc3cc4n(c3)C(=O)N(CC[C@](C)(C(=O)NO)S(C)(=O)=O)C4)cc2)C1 [Example 27, 1-methylazetidin-3-yl (3R)-(4-((2-(4-(hydroxyamino)-3-methyl-3-(methylsulfonyl)-4-oxobutyl)-3-oxo-2,3-dihydro-1H-pyrrolo[1,2-c]imidazol-6-yl)ethynyl)benzyl)carbamate] |  |  | 
2 | 0.25 (≈ 0.497 µM) | 0.5 (≈ 0.995 µM) | 2 (≈ 3.98 µM) | C[C@@](CCN1Cc2cc(C#CC#C[C@@H]3C[C@H]3CN3CCOCC3)cn2C1=O)(C(=O)NO)S(C)(=O)=O [Example 29, (2R)—N-hydroxy-2-methyl-2-(methylsulfonyl)-4-(6-(((1R,2R)-2-(morpholinomethyl)cyclopropyl)buta-1,3-diyn-1-yl)-3-oxo-1H-pyrrolo[1,2-c]imidazol-2(3H)-yl)butanamide] |  |  | 
3 | 0.5 (≈ 1.16 µM) | 0.5 (≈ 1.16 µM) | 0.5 (≈ 1.16 µM) | CN1CC(C#CC#Cc2cc3n(c2)C(=O)N(CC[C@](C)(C(=O)NO)S(C)(=O)=O)C3)C1 [Example 30, (2R)—N-hydroxy-2-methyl-4-(6-((1-methylazetidin-3-yl)buta-1,3-diyn-1-yl)-3-oxo-1H-pyrrolo[1,2-c]imidazol-2(3H)-yl)-2-(methylsulfonyl)butanamide] |  |  | 
4 |  |  |  | C[C@@](CCN1Cc2cc(C#CC#CC3CNC3)cn2C1=O)(C(=O)NOC1CCCCO1)S(C)(=O)=O (stereo partly drawn) [Example 31, (2R)-4-(6-(azetidin-3-ylbuta-1,3-diyn-1-yl)-3-oxo-1H-pyrrolo[1,2-c]imidazol-2(3H)-yl)-2-methyl-2-(methylsulfonyl)-N-((tetrahydro-2H-pyran-2-yl)oxy)butanamide] | 8 | 8 | 1
5 | 1 (≈ 2.17 µM) | 2 (≈ 4.34 µM) | 1 (≈ 2.17 µM) | CC(=O)N1CC(C#CC#Cc2cc3n(c2)C(=O)N(CC[C@](C)(C(=O)NO)S(C)(=O)=O)C3)C1 [Example 32, (2R)-4-(6-((1-acetylazetidin-3-yl)buta-1,3-diyn-1-yl)-3-oxo-1H-pyrrolo[1,2-c]imidazol-2(3H)-yl)-N-hydroxy-2-methyl-2-(methylsulfonyl)butanamide] |  |  | 
6 | 0.25 (≈ 0.555 µM) | 0.25 (≈ 0.555 µM) | 2 (≈ 4.44 µM) | CN1CC(F)(C#CC#Cc2cc3n(c2)C(=O)N(CC[C@](C)(C(=O)NO)S(C)(=O)=O)C3)C1 [Example 33, (2R)-4-(6-((3-fluoro-1-methylazetidin-3-yl)buta-1,3-diyn-1-yl)-3-oxo-1H-pyrrolo[1,2-c]imidazol-2(3H)-yl)-N-hydroxy-2-methyl-2-(methylsulfonyl)butanamide] |  |  | 
7 | 4 (≈ 8.69 µM) | 4 (≈ 8.69 µM) | 1 (≈ 2.17 µM) | CN1CCC(C#CC#Cc2cc3n(c2)C(=O)N(CC[C@](C)(C(=O)NO)S(C)(=O)=O)C3)CC1 [Example 34, (2R)—N-hydroxy-2-methyl-4-(6-((1-methylpiperidin-4-yl)buta-1,3-diyn-1-yl)-3-oxo-1H-pyrrolo[1,2-c]imidazol-2(3H)-yl)-2-(methylsulfonyl)butanamide] |  |  | 
8 | 0.5 (≈ 0.995 µM) | 1 (≈ 1.99 µM) | 2 (≈ 3.98 µM) | C[C@@](CCN1Cc2cc(C#CC#CC3CCN(C4COC4)CC3)cn2C1=O)(C(=O)NO)S(C)(=O)=O [Example 35, (2R)—N-hydroxy-2-methyl-2-(methylsulfonyl)-4-(6-((1-(oxetan-3-yl)piperidin-4-yl)buta-1,3-diyn-1-yl)-3-oxo-1H-pyrrolo[1,2-c]imidazol-2(3H)-yl)butanamide] |  |  | 
9 | 0.5 (≈ 0.886 µM) | 0.5 (≈ 0.886 µM) | 2 (≈ 3.54 µM) | C[C@@](CCN1Cc2cc(C#Cc3ccc(CN4CC[C@H](O)C(F)(F)C4)cc3)cn2C1=O)(C(=O)NO)S(C)(=O)=O [Example 37, (2R)-4-(6-((4-(((S)-3,3-difluoro-4-hydroxypiperidin-1-yl)methyl)phenyl)ethynyl)-3-oxo-1H-pyrrolo[1,2-c]imidazol-2(3H)-yl)-N-hydroxy-2-methyl-2-(methylsulfonyl)butanamide] |  |  | 
10 | 0.063 (≈ 0.146 µM) | 0.25 (≈ 0.578 µM) | 0.5 (≈ 1.16 µM) | CNC1(C#CC#Cc2cc3n(c2)C(=O)N(CC[C@](C)(C(=O)NO)S(C)(=O)=O)C3)CC1 [Example 38, (2R)—N-hydroxy-2-methyl-4-(6-((1-(methylamino)cyclopropyl)buta-1,3-diyn-1-yl)-3-oxo-1H-pyrrolo[1,2-c]imidazol-2(3H)-yl)-2-(methylsulfonyl)butanamide] |  |  | 
11 | 8 (≈ 15.8 µM) | 4 (≈ 7.91 µM) | 4 (≈ 7.91 µM) | CN1CC(OC(=O)NCC#CC#Cc2cc3n(c2)C(=O)N(CC[C@](C)(C(=O)NO)S(C)(=O)=O)C3)C1 [Example 39, 1-methylazetidin-3-yl (3R)-(5-(2-(4-(hydroxyamino)-3-methyl-3-(methylsulfonyl)-4-oxobutyl)-3-oxo-2,3-dihydro-1H-pyrrolo[1,2-c]imidazol-6-yl)penta-2,4-diyn-1-yl)carbamate] |  |  | 
12 | 2 (≈ 4.2 µM) | 2 (≈ 4.2 µM) | 2 (≈ 4.2 µM) | C[C@@](CCN1Cc2cc(C#CC#CCN3CCC(O)CC3)cn2C1=O)(C(=O)NO)S(C)(=O)=O [Example 40, (2R)—N-hydroxy-4-(6-(5-(4-hydroxypiperidin-1-yl)penta-1,3-diyn-1-yl)-3-oxo-1H-pyrrolo[1,2-c]imidazol-2(3H)-yl)-2-methyl-2-(methylsulfonyl)butanamide] |  |  | 
13 | 0.5 (≈ 1.08 µM) | 0.5 (≈ 1.08 µM) | 0.5 (≈ 1.08 µM) | C[C@@](CCN1Cc2cc(C#CC#CC3CN(CCO)C3)cn2C1=O)(C(=O)NO)S(C)(=O)=O [Example 41, (2R)—N-hydroxy-4-(6-((1-(2-hydroxyethyl)azetidin-3-yl)buta-1,3-diyn-1-yl)-3-oxo-1H-pyrrolo[1,2-c]imidazol-2(3H)-yl)-2-methyl-2-(methylsulfonyl)butanamide] |  |  | 
14 | 0.5 (≈ 0.999 µM) | 2 (≈ 4 µM) | 0.5 (≈ 0.999 µM) | C[C@@](CCN1Cc2cc(C#Cc3ccc(CN4CC(O)C4)cc3)cn2C1=O)(C(=O)NO)S(C)(=O)=O [Example 43, (2R)—N-hydroxy-4-(6-((4-((3-hydroxyazetidin-1-yl)methyl)phenyl)ethynyl)-3-oxo-1H-pyrrolo[1,2-c]imidazol-2(3H)-yl)-2-methyl-2-(methylsulfonyl)butanamide] |  |  | 
15 | 2 (≈ 4.34 µM) | 2 (≈ 4.34 µM) | 4 (≈ 8.69 µM) | CN(C)C[C@@H]1C[C@H]1C#CC#Cc1cc2n(c1)C(=O)N(CC[C@](C)(C(=O)NO)S(C)(=O)=O)C2 [Example 44, (2R)-4-(6-(((1R,2R)-2-((dimethylamino)methyl)cyclopropyl)buta-1,3-diyn-1-yl)-3-oxo-1H-pyrrolo[1,2-c]imidazol-2(3H)-yl)-N-hydroxy-2-methyl-2-(methylsulfonyl)butanamide] |  |  | 
16 | 8 (≈ 15.4 µM) | 8 (≈ 15.4 µM) | > 8 | C[C@@](CCN1Cc2cc(C#CC#CC3(O)CCN(C4COC4)CC3)cn2C1=O)(C(=O)NO)S(C)(=O)=O [Example 45, (2R)—N-hydroxy-4-(6-((4-hydroxy-1-(oxetan-3-yl)piperidin-4-yl)buta-1,3-diyn-1-yl)-3-oxo-1H-pyrrolo[1,2-c]imidazol-2(3H)-yl)-2-methyl-2-(methylsulfonyl)butanamide] |  |  | 
17 | 0.5 (≈ 1.04 µM) | 1 (≈ 2.09 µM) | 1 (≈ 2.09 µM) | CN1CCC(F)(C#CC#Cc2cc3n(c2)C(=O)N(CC[C@](C)(C(=O)NO)S(C)(=O)=O)C3)CC1 [Example 46, (2R)-4-(6-((4-fluoro-1-methylpiperidin-4-yl)buta-1,3-diyn-1-yl)-3-oxo-1H-pyrrolo[1,2-c]imidazol-2(3H)-yl)-N-hydroxy-2-methyl-2-(methylsulfonyl)butanamide] |  |  | 
